The values below come from ChEMBL document CHEMBL1201862, “PubChem BioAssay data set” (2004).

Common to all, as to assay: NCI tumour cell line growth inhibition, 48 h
Assay [1] deals with HOP-62.
Assay [2] has as its system U-251.
In assay [3] the test system is HCT-116.
Assay [4] has as its system HT-29.
Assay [5] has as its system UO-31.
The subject of assay [6] is MCF7.
In assay [7] the test system is NCI-H23.
Assay [8] concerns MDA-MB-231.
In assay [9] the test system is HCT-15.
For assay [10], the system named is Hs-578T.
For assay [11], the system named is NCI-H460.
For assay [12], the system named is CAKI-1.
In assay [13] the test system is SK-OV-3.
The test system of assay [14] is SF-268.
Assay [15] deals with MOLT-4.
The test system of assay [16] is OVCAR-3.
For assay [17], the system named is NCI-H226.
Assay [18] has as its system UACC-62.
For assay [19], the system named is SW-620.

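Briefly, cells in 96-well plates were exposed to five compound concentrations for 48 h, and endpoints were estimated by linear interpolation. The concentration for 50% growth inhibition is given as GI50.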 Activity calls are given as the source filed them. Rule as the data show it: active = GI50 up to about 1.1 µM and inactive = higher.

On to `N#Cc1sc2c(c1OC(=O)c1ccc(Cl)cc1Cl)c(=O)n(-c1ccccc1)c(=S)n2-c1ccccc1`, for which the GI50 in assay [1] is 26.4 µM (inactive); in assay [2] it was 15.4 µM (inactive); in assay [3], 13.4 µM (inactive); in assay [4], 18.2 µM (inactive); in assay [5], 0.13 µM (active); in assay [6], 23 µM (inactive). Moreover, the GI50 in assay [7] was 18.8 µM (inactive); in assay [8], 22.8 µM (inactive); in assay [9] it was 21.5 µM; in assay [10] it was 36.7 µM (inactive); in assay [11], 33.3 µM (inactive); in assay [12], 23.7 µM (inactive). In addition, the GI50 in [13] was 32.7 µM (inactive); in [14], 29.4 µM (inactive); in [15], 18.7 µM (inactive); in assay [16], 19.2 µM (inactive); in assay [17] it was 23.8 µM (inactive); in assay [18], 18.4 µM (inactive). Also, the GI50 in assay [19] was 24.5 µM (inactive).
Take `NC(CSCc1ccc(I)cc1)C(=O)O` (centres undefined): the GI50 in assay [1], in [2], in [3], in [4], in assay [5] and in assay [6] was > 100 µM (inactive) throughout. Besides, the GI50 in [7] was > 100 µM (inactive); in [8], > 100 µM (inactive); in [9], > 100 µM; in [10], 80.7 µM (inactive); in assay [11], > 100 µM (inactive); in assay [12], > 100 µM (inactive). The GI50 in assay [13], in assay [14], in [15], in assay [16], in assay [17] and in assay [18] was > 100 µM (inactive) each time. In addition, the GI50 in [19] is > 100 µM (inactive).
Take `CCCCOC(=O)C(=O)C(CCC(=O)c1ccc(C)cc1)C(=O)C=C(C)C` (centres undefined): the GI50 in assay [1], in assay [2], in assay [3], in assay [4], in assay [5] and in assay [6] was > 100 µM (inactive) throughout. Further, the GI50 in assay [7] was > 100 µM (inactive); in [8], > 100 µM (inactive); in assay [9], > 100 µM; in assay [10] it was > 100 µM (inactive); in [11], > 100 µM (inactive); in assay [12], > 100 µM (inactive). In addition, the GI50 in assay [13], in assay [14], in assay [15], in [16], in assay [17] and in [18] was > 100 µM (inactive) each time. Besides, the GI50 in assay [19] was > 100 µM (inactive).
On to `CC[S+]([O-])c1c2cc(OC)ccc2nc2ccc(OC)cc12` (centres undefined), for which the GI50 in assay [1] was 21.5 µM (inactive); in assay [2], 16.7 µM (inactive); in assay [3], 3.19 µM (inactive); in assay [4], 4.09 µM (inactive); in [5], 4.82 µM (inactive); in assay [6], 2.84 µM (inactive). In addition, the GI50 is 6.05 µM (inactive) in assay [7]; 5.62 µM (inactive) in [8]; 6.75 µM in [9]; 13.1 µM (inactive) in assay [10]; 29.5 µM (inactive) in assay [11]; 5.06 µM (inactive) in [12]. Besides, the GI50 is 24.1 µM (inactive) in assay [13]; 14.5 µM (inactive) in [14]; 4.07 µM (inactive) in assay [15]; 6 µM (inactive) in assay [16]; 21.8 µM (inactive) in assay [17]; 16.9 µM (inactive) in [18]. The GI50 in assay [19] is 6.84 µM (inactive).
Take `COc1ccccc1CC(=O)C(O)(C(F)(F)F)C(F)(F)F`: the GI50 in assay [1], in [2], in assay [3], in assay [4], in assay [5] and in assay [6] was > 100 µM (inactive) in each case. The GI50 is > 100 µM (inactive) in assay [7]; > 100 µM (inactive) in assay [8]; > 100 µM in [9]; > 100 µM (inactive) in assay [10]; > 100 µM (inactive) in assay [11]; > 100 µM (inactive) in [12]. The GI50 in assay [13], in [14], in assay [15], in assay [16], in assay [17] and in assay [18] was > 100 µM (inactive) throughout. In addition, in assay [19], the GI50 was > 100 µM (inactive).
With `CC(C)N(/C(F)=N\C(=O)Nc1ccccc1C(F)(F)F)C(C)C`, the GI50 in assay [1] is 75 µM (inactive); in [2], 43.4 µM (inactive); in assay [3] it was 36.6 µM (inactive); in assay [4], 40.2 µM (inactive); in assay [5], 45 µM (inactive); in assay [6], 35.6 µM (inactive). The GI50 is 67 µM (inactive) in assay [7]; 47.3 µM (inactive) in [8]; 34.3 µM in [9]; 60.3 µM (inactive) in assay [10]; 68.2 µM (inactive) in assay [11]; 37.4 µM (inactive) in [12]. Further, the GI50 in assay [13] was 33.7 µM (inactive); in assay [14], 89.3 µM (inactive); in assay [15], > 10 µM (inactive); in assay [16], 32 µM (inactive); in assay [17], > 100 µM (inactive); in assay [18] it was > 10 µM (inactive). Also, the GI50 in [19] is 44.7 µM (inactive).
Regarding `C/C(=N/NC(=O)c1ccncc1)c1ccc(NC(=O)C(=O)Nn2c(S)nc3ccccc3c2=O)cc1`, the GI50 in [1], in [2], in assay [3], in assay [4], in assay [5] and in [6] was > 100 µM (inactive) each time. Besides, the GI50 in [7] was > 100 µM (inactive); in assay [8], > 100 µM (inactive); in [9], > 100 µM; in assay [10], > 100 µM (inactive); in assay [11] it was > 100 µM (inactive); in assay [12] it was > 100 µM (inactive). Further, the GI50 in assay [13], in [14], in assay [15], in assay [16], in assay [17] and in assay [18] was > 100 µM (inactive) throughout. In addition, the GI50 in assay [19] is > 100 µM (inactive).
In the case of `CCOC(=O)c1c(C)n(CCN2CCN(C)CC2)c2ccc(OC)cc12`, the GI50 in [1] was 32.3 µM (inactive); in assay [2], 31.8 µM (inactive); in assay [3] it was 38.4 µM (inactive); in assay [4], 24.7 µM (inactive); in assay [5], 35.1 µM (inactive); in assay [6], 33.6 µM (inactive). The GI50 in [7] was > 100 µM (inactive); in assay [8], 24.5 µM (inactive); in assay [9], 28.8 µM; in [10] it was 55.5 µM (inactive); in assay [11] it was 48.9 µM (inactive); in assay [12] it was 32.3 µM (inactive). The GI50 in assay [13] is 72.6 µM (inactive); in assay [14], 53.7 µM (inactive); in assay [15], 22.6 µM (inactive); in assay [16], > 100 µM (inactive); in assay [17], 29.7 µM (inactive); in [18], 17 µM (inactive). Besides, the GI50 in [19] is 37.5 µM (inactive).
Consider `c1cncc(CNCc2cccnc2)c1`, for which the GI50 in assay [1], in assay [2], in assay [3], in [4], in assay [5] and in assay [6] was > 100 µM (inactive) throughout. The GI50 in assay [7] was > 100 µM (inactive); in [8], > 100 µM (inactive); in assay [9], > 100 µM; in assay [10], > 100 µM (inactive); in assay [11] it was > 100 µM (inactive); in assay [12] it was > 100 µM (inactive). For the same compound, the GI50 in [13], in assay [14], in assay [15], in assay [16], in assay [17] and in assay [18] was > 100 µM (inactive) each time. Also, the GI50 in assay [19] is > 100 µM (inactive).
On to `CSC1(Cc2ccccn2)C(=O)Nc2cccc([N+](=O)[O-])c21` (centres undefined), for which the GI50 was > 100 µM (inactive) in assay [1]; > 100 µM (inactive) in [2]; 79.1 µM (inactive) in [3]; > 100 µM (inactive) in [4]; > 100 µM (inactive) in assay [5]; 76 µM (inactive) in [6]. Moreover, the GI50 in assay [7] was > 100 µM (inactive); in assay [8], > 100 µM (inactive); in assay [9], > 100 µM; in [10], > 100 µM (inactive); in assay [11] it was > 100 µM (inactive); in [12], > 100 µM (inactive). Also, the GI50 was > 100 µM (inactive) in assay [13]; > 100 µM (inactive) in [14]; 33.3 µM (inactive) in [15]; > 100 µM (inactive) in assay [16]; > 100 µM (inactive) in assay [17]; > 100 µM (inactive) in assay [18]. Moreover, the GI50 in assay [19] was 56.4 µM (inactive).
On to `Cc1ccc(S(=O)(=O)N/N=C2\CC3C4C=CC3C2C4)cc1` (centres undefined), for which the GI50 in assay [1] is > 100 µM (inactive); in assay [2], > 100 µM (inactive); in assay [3], > 100 µM (inactive); in assay [4] it was > 100 µM (inactive); in assay [5], 21 µM (inactive); in [6] it was > 100 µM (inactive). In addition, the GI50 is > 100 µM (inactive) in assay [7]; > 100 µM (inactive) in assay [8]; > 100 µM in [9]; > 100 µM (inactive) in [10]; > 100 µM (inactive) in assay [11]; > 100 µM (inactive) in assay [12]. The GI50 in [13], in assay [14], in assay [15], in [16], in assay [17] and in assay [18] was > 100 µM (inactive) each time. Moreover, the GI50 in [19] was > 100 µM (inactive).
